Source: ChEMBL document CHEMBL3044737, “Synthesis of biotinylated 18-glycyrrhetinic acid and its effect on tumor cells activity” (Med Chem Res, 2009)
Active and inactive are the calls of the source. The rule behind the calls is not given here.

How the values were obtained:
Bel-7402 [1] = assay: Cytotoxicity against Homo sapiens (human) Bel7402 cells assessed as reduction of cell number up to 250 umol/L after 12 hr by MTT assay; format: functional, cell-based
B16 [2] = assay: Cytotoxicity against Mus musculus (mouse) B16 cells assessed as reduction of cell number up to 250 umol/L after 12 hr by MTT assay; format: functional, cell-based
B16 [3] = assay: Cytotoxicity against Mus musculus (mouse) B16 cells assessed as reduction of cell number after 12 hr by MTT assay; format: functional, cell-based; conditions: B16, 12 h
Bel-7402 [4] = assay: Cytotoxicity against Homo sapiens (human) Bel7402 cells assessed as reduction of cell number at 50 umol/L after 12 hr by MTT assay; format: functional, cell-based
[5] = Stability of the compound in water at 100 uM after 24 hr; format: physicochemical; conditions: buffer
B16 [6] = assay: Cytotoxicity against Mus musculus (mouse) B16 cells assessed as reduction of cell number at 50 umol/L after 12 hr by MTT assay; format: functional, cell-based
[7] = Stability of the compound in RPMI-1640 medium at 100 uM after 6 days; format: physicochemical; conditions: 144 h
Bel-7402 [8] = assay: Cytotoxicity against Homo sapiens (human) Bel7402 cells assessed as reduction of cell number after 12 hr by MTT assay; format: functional, cell-based; conditions: Bel-7402, 12 h

Stability [5]	Stability [7]	Compound	Activity (Bel-7402 [1])	Activity (B16 [2])	IC50 (B16 [3]) [µM]	Activity (Bel-7402 [4])	Activity (B16 [6])	IC50 (Bel-7402 [8]) [µM]
Stable	Stable	CC1(C)[C@@H](O)CC[C@]2(C)[C@H]3C(=O)C=C4[C@@H]5C[C@@](C)(C(=O)NCCCCCCNC(=O)CCCC[C@@H]6SC[C@@H]7NC(=O)N[C@@H]76)CC[C@]5(C)CC[C@@]4(C)[C@]3(C)CC[C@@H]12	Active	Active	170	inactive	inactive	175
Unstable	Stable	CC1(C)[C@@H](O)CC[C@]2(C)[C@H]3C(=O)C=C4[C@@H]5C[C@@](C)(C(=O)O)CC[C@]5(C)CC[C@@]4(C)[C@]3(C)CC[C@@H]12 [ENOXOLONE]	Active	Active	–	inactive	inactive	–
